The record followed here is patent publication US11077128B2, “Selective inhibitors of Alpha2-containing isoforms of Na,K-ATPase and use thereof for reduction of intraocular pressure” (Yeda Research and Development Co. Ltd., priority 2015, dated 2021).

For experiment [1], the target named is human Na,K-ATPase α2β3FXYD1 (Homo sapiens (Human), UniProt P50993). As to the kind of experiment: biochemical. It counts as biochemical.
Experiment [2] relates to IOP in rabbits. As to the kind of experiment: Lowering of basal IOP in rabbits, topical. It counts as in vivo, New Zealand white rabbits. To be noted: for effect on lowering the basal IOP: one drop of 1 mM solution, other eye PBS.
Experiment [3] relates to human Na,K-ATPase α2β3FXYD1. Kind of experiment: biochemical. It counts as biochemical.
The test system of experiment [4] is IOP in rabbits. In kind it is in vivo, New Zealand white rabbits. To be noted: one drop topically prior to 4AP, IOP over 5 hours.
For experiment [5], the target named is human Na,K-ATPase α2β1FXYD1 (Homo sapiens, UniProt P50993). Kind of experiment: biochemical. It counts as biochemical.
Experiment [6] concerns the target human Na,K-ATPase α1β1FXYD1 (Homo sapiens (Human), UniProt P05023). Kind of experiment: biochemical.
Experiment [7] has as its target human Na,K-ATPase α2β2FXYD1 (Homo sapiens (Human), UniProt P50993). Kind of experiment: biochemical.

Read-outs that look alike come from different tables or passages of the source.

In the case of `[O]=[V]([OH])([OH])[OH]` [vanadate, reference compound], the Ki in experiment [1] (read-out: apparent vanadate affinity (Ki vanadate) α2β3) worked out at 19000 nM.
Turning to `C[C@H]1O[C@@H](O[C@H]2[C@@H](O)C[C@H](O[C@H]3[C@@H](O)C[C@H](O[C@H]4CC[C@@]5(C)[C@H](CC[C@@H]6[C@@H]5C[C@@H](O)[C@]5(C)[C@@H](C7=CC(=O)OC7)CC[C@]65O)C4)O[C@@H]3C)O[C@@H]2C)C[C@H](O)[C@@H]1O` [Digoxin, digoxin, reference compound], the “effect on lowering the basal IOP” value with IOP in rabbits [2] is listed as “neither digoxin nor DiB had a significant effect”.
In the case of `CC1CN(C2CCC2)CCC(O[C@@H]2C(C)O[C@@H](O[C@@H]3C(C)O[C@@H](O[C@H]4CC[C@@]5(C)C(CCC6C5CC(O)[C@]5(C)[C@@H](C7=CC(=O)OC7)CC[C@]65O)C4)C[C@@H]3O)C[C@@H]2O)O1` (stereo in doubt) [DcB, 4-((3S,5R,8R,9S,10S,12R,13S,14S,17R)-3-(((2R,4S,5S,6R)-5-(((2S,4S,5S,6R)-5-((4-cyclobutyl-2-methyl-1,4-oxazepan-7-yl)oxy)-4-hydroxy-6-methyltetrahydro-2H-pyran-2-yl)oxy)-4-hydroxy-6-methyltetrahydro-2H-pyran-2-yl)oxy)-12,14-dihydroxy-10,13-dimethylhexadecahydro-1H-cyclopenta[a]phenanthren-17-yl)furan-2(5H)-one], the “Selectivity Ki ratio α1β1/α2β3” value in experiment [3] is given as 33. The “concentration that prevents the rise of the 4AP-induced IOP” value with IOP in rabbits [4] is 0.01 mM. Further, the “reduction of basal IOP at higher concentration” value with IOP in rabbits [2] (2 mM) is on record as “reduces the IOP similarly to 1 mM DcB”.
With `CC1CN(C)CCC(O[C@@H]2[C@H](C)O[C@@H](O[C@@H]3[C@H](C)O[C@@H](O[C@H]4CC[C@@]5(C)C(CCC6C5C[C@H](O)[C@]5(C)[C@@H](C7=CC(=O)OC7)CC[C@]65O)C4)C[C@@H]3O)C[C@@H]2O)O1` (some centres unmarked) [DMe], the “Selectivity Ki ratio α1β1/α2β1” value in experiment [5] came to 6.7. Moreover, the “Selectivity Ki ratio α1β1/α2β3” value in experiment [3] is recorded as 9.5. For the same molecule, in the experiment on IOP in rabbits [2], the “effect on lowering the basal IOP” value was “coincides with other observations”.
On to `CC1CN(C[Si](C)(C)C)CCC(OC2C(O)CC(OC3C(O)CC(OC4CCC5(C)C(CCC6C5CC(O)C5(C)C(C7=CC(=O)OC7)CCC65O)C4)OC3C)OC2C)O1` (centres unmarked) [DTMS], for which, in experiment [5], the “Selectivity Ki ratio α1β1/α2β1” value was 3. Besides, the “Selectivity Ki ratio α1β1/α2β3” value in experiment [3] came out at 6.5.
Taken in the same sequence, the figures for `CCN1CCC(O[C@@H]2[C@H](C)O[C@@H](O[C@@H]3[C@H](C)O[C@@H](O[C@H]4CC[C@@]5(C)C(CCC6C5C[C@H](O)[C@]5(C)[C@@H](C7=CC(=O)OC7)CC[C@]65O)C4)C[C@@H]3O)C[C@@H]2O)OC(C)C1` (some centres unmarked) [DEt] were 5.9 and 9.5.
As to `CC1CN(C2CCC2)CCC(O[C@@H]2C(C)O[C@@H](OC3C(C)OC(O[C@H]4CC[C@@]5(C)C(CCC6C5CC[C@]5(C)[C@@H](C7=CC(=O)OC7)CC[C@]65O)C4)C[C@@H]3O)C[C@@H]2O)O1` (stereo in doubt) [DtxcB, 4-((3S,5R,8R,9S,10S,13R,14S,17R)-3-(((2S,4S,5R,6R)-5-(((2S,4S,5S,6R)-5-((4-cyclobutyl-2-methyl-1,4-oxazepan-7-yl)oxy)-4-hydroxy-6-methyltetrahydro-2H-pyran-2-yl)oxy)-4-hydroxy-6-methyltetrahydro-2H-pyran-2-yl)oxy)-14-hydroxy-10,13-dimethylhexadecahydro-1H-cyclopenta[a]phenanthren-17-yl)furan-2(5H)-one], the Ki stood at 30.7 ± 7.2 nM in experiment [6], 5.4 ± 0.5 nM in experiment [5], 5.3 ± 0.8 nM in experiment [7] and 4.3 ± 0.6 nM in experiment [1]. The “Ki reduced compared to digoxin” value in experiment [1] is “about 10 fold”.
With `CCCN1CCC(O[C@@H]2[C@H](C)O[C@@H](O[C@@H]3[C@H](C)O[C@@H](O[C@H]4CC[C@@]5(C)C(CCC6C5C[C@H](O)[C@]5(C)[C@@H](C7=CC(=O)OC7)CC[C@]65O)C4)C[C@@H]3O)C[C@@H]2O)OC(C)C1` (some centres unmarked) [DP], the “Selectivity Ki ratio α1β1/α2β1” value in experiment [5] is listed as 4.8. Further, in experiment [3], the “Selectivity Ki ratio α1β1/α2β3” value was 8.8.
For the molecule `CC1CN(CCS(N)(=O)=O)CCC(O[C@@H]2C(C)O[C@@H](OC3C(C)OC(O[C@H]4CC[C@@]5(C)C(CCC6C5CC(O)[C@]5(C)[C@@H](C7=CC(=O)OC7)CC[C@]65O)C4)C[C@@H]3O)C[C@@H]2O)O1` (stereo in doubt) [DESA, 2-(7-(((2R,3S,4S,6S)-6-(((2R,3R,4S,6S)-6-(((3S,5R,8R,9S,10S,12R,13S,14S,17R)-12,14-dihydroxy-10,13-dimethyl-17-(5-oxo-2,5-dihydrofuran-3-yl)hexadecahydro-1H-cyclopenta[a]phenanthren-3-yl)oxy)-4-hydroxy-2-methyltetrahydro-2H-pyran-3-yl)oxy)-4-hydroxy-2-methyltetrahydro-2H-pyran-3-yl)oxy)-2-methyl-1,4-oxazepan-4-yl)ethanesulfonamide], in experiment [5], the “Selectivity Ki ratio α1β1/α2β1” value is 7.7. Besides, in experiment [3], the “Selectivity Ki ratio α1β1/α2β3” value turned out to be 15.
For `CC1CN(CC(N)=O)CCC(OC2C(O)CC(OC3C(O)CC(OC4CCC5(C)C(CCC6C5CC(O)C5(C)C(C7=CC(=O)OC7)CCC65O)C4)OC3C)OC2C)O1` (centres unmarked) [DGlyN, reference compound], the “effect on lowering the basal IOP” value in the experiment with IOP in rabbits [2] was “coincides with other observations”.
Consider `CC1CN(CC2CC2)CCC(O[C@@H]2C(C)O[C@@H](OC3C(C)OC(O[C@H]4CC[C@@]5(C)C(CCC6C5CC[C@]5(C)[C@@H](C7=CC(=O)OC7)CC[C@]65O)C4)C[C@@H]3O)C[C@@H]2O)O1` (stereo in doubt) [DtxMcP, 4-((3S,5R,8R,9S,10S,13R,14S,17R)-3-(((2S,4S,5R,6R)-5-(((2S,4S,5S,6R)-5-((4-(cyclopropylmethyl)-2-methyl-1,4-oxazepan-7-yl)oxy)-4-hydroxy-6-methyltetrahydro-2H-pyran-2-yl)oxy)-4-hydroxy-6-methyltetrahydro-2H-pyran-2-yl)oxy)-14-hydroxy-10,13-dimethylhexadecahydro-1H-cyclopenta[a]phenanthren-17-yl)furan-2(5H)-one], for which the Ki in experiment [6] turned out to be 25 ± 4 nM; in experiment [5] it was 4.2 ± 0.4 nM; in experiment [7], 5.4 ± 1.2 nM; in experiment [1] it was 3.7 ± 0.5 nM. Moreover, the “Ki reduced compared to digoxin” value in experiment [1] is given as “about 10 fold”.
As for `CC1CN(CC2CC2)CCC(O[C@@H]2C(C)O[C@@H](O[C@@H]3C(C)O[C@@H](O[C@H]4CC[C@@]5(C)C(CCC6C5CC(O)[C@]5(C)[C@@H](C7=CC(=O)OC7)CC[C@]65O)C4)C[C@@H]3O)C[C@@H]2O)O1` (stereo in doubt) [DMcP, 4-((3S,5R,8R,9S,10S,12R,13S,14S,17R)-3-(((2R,4S,5S,6R)-5-(((2S,4S,5S,6R)-5-((4-(cyclopropylmethyl)-2-methyl-1,4-oxazepan-7-yl)oxy)-4-hydroxy-6-methyltetrahydro-2H-pyran-2-yl)oxy)-4-hydroxy-6-methyltetrahydro-2H-pyran-2-yl)oxy)-12,14-dihydroxy-10,13-dimethylhexadecahydro-1H-cyclopenta[a]phenanthren-17-yl)furan-2(5H)-one], the “Selectivity Ki ratio α1β1/α2β1” value in experiment [5] was determined as 5.2. Also, the “Selectivity Ki ratio α1β1/α2β3” value in experiment [3] is on record as 22. Besides, in the experiment with IOP in rabbits [4], the “concentration that prevents the rise of the 4AP-induced IOP” value is reported as 0.01 mM.
As for `CC(=O)O[C@H]1C[C@H](O[C@H]2[C@@H](OC(C)=O)C[C@H](O[C@H]3CC[C@@]4(C)[C@H](CC[C@@H]5[C@@H]4C[C@@H](OC(C)=O)[C@]4(C)[C@@H](C6=CC(=O)OC6)CC[C@]54O)C3)O[C@@H]2C)O[C@H](C)[C@H]1OC1CCN(C2CCC2)CC(C)O1` (stereo partly drawn) [TrisAcDcB, (2R,3R,4S,6R)-6-(((3S,5R,8R,9S,10S,12R,13S,14S,17R)-12-acetoxy-14-hydroxy-10,13-dimethyl-17-(5-oxo-2,5-dihydrofuran-3-yl)hexadecahydro-1H-cyclopenta[a]phenanthren-3-yl)oxy)-3-(((2S,4S,5R,6R)-4-acetoxy-5-((4-cyclobutyl-2-methyl-1,4-oxazepan-7-yl)oxy)-6-methyltetrahydro-2H-pyran-2-yl)oxy)-2-methyltetrahydro-2H-pyran-4-yl acetate], in the experiment with IOP in rabbits [2] (0.05-0.2 mM), the “time to minimum IOP” value was 5 to 6 h. Further, the “minimum IOP” value in the experiment with IOP in rabbits [2] (dropped from 15-16 mmHg, 0.05-0.2 mM) was determined as 12 mmHg. Moreover, in the experiment on IOP in rabbits [2] (one 30 μl drop, 0.05, 0.1, 0.2 mM), the “effect on basal IOP in the first hours (lag)” value is on record as “no effect was observed at the first four hours”. For the same molecule, in the experiment on IOP in rabbits [2] (prodrug, 0.05-0.2 mM), the “time of return of IOP to the control level” value came to 12 h. The “maximal effect on IOP compared with parent DcB” value with IOP in rabbits [2] (rabbit, in vivo) is “essentially equal to that produced by the parent DcB”.
